{"source": "ChEMBL document CHEMBL4507311", "about": "“Data for DCP probe A-1155463” (2021)", "key": {"[1]": {"target": "Cyclin-dependent kinase-like 5 (Homo sapiens) (UniProt O76039)", "settings": "Compound concentration 1000.0 nM"}, "[2]": {"system": "Epidermal growth factor receptor (Homo sapiens), P00533 [L861Q]", "settings": "Compound concentration 1000.0 nM"}, "[3]": {"target": "Serine/threonine-protein kinase PLK1 (Homo sapiens) (UniProt P53350)", "sequence (P53350 whole entry)": "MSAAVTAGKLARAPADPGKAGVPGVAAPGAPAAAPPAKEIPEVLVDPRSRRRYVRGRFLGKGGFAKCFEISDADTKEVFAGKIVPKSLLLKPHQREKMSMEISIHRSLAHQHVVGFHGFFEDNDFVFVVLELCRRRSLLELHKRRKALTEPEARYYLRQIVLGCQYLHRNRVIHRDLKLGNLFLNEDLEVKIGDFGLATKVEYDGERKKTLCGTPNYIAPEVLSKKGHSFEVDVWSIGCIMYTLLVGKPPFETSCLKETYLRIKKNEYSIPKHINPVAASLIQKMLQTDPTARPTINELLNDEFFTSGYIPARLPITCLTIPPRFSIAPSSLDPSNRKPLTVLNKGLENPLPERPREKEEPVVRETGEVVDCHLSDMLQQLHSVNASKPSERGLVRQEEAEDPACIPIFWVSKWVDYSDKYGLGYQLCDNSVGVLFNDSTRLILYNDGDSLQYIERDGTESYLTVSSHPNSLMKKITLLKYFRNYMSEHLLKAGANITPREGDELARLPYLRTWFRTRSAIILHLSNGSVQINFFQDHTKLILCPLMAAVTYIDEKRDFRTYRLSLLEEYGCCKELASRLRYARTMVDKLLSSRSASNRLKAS", "settings": "Compound concentration 1000.0 nM"}, "[4]": {"target": "Mitogen-activated protein kinase kinase kinase 20 (Homo sapiens) (UniProt Q9NYL2)", "sequence (Q9NYL2 2-800 limits assumed)": "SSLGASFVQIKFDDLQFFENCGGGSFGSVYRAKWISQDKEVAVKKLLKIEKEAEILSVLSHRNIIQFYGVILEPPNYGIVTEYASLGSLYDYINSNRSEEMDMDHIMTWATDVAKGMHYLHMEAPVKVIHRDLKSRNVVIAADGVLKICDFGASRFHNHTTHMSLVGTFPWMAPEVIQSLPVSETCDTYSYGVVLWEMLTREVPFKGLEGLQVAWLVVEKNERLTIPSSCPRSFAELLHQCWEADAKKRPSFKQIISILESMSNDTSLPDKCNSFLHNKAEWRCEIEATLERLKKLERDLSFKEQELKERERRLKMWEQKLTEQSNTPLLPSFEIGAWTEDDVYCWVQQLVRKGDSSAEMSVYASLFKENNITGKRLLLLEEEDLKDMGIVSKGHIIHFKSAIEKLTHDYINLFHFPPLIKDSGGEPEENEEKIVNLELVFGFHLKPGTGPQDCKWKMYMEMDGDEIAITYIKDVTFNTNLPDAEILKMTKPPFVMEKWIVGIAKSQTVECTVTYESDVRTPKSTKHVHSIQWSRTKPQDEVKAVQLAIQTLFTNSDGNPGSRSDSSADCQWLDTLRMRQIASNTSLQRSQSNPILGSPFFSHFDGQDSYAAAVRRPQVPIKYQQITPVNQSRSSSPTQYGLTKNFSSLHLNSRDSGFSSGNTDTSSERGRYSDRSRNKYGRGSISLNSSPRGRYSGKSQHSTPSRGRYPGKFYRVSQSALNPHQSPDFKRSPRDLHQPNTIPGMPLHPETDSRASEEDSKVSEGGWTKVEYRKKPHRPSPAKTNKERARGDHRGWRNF", "settings": "Compound concentration 1000.0 nM"}, "[5]": {"target": "Casein kinase II subunit alpha' (Homo sapiens) (UniProt P19784)", "settings": "Compound concentration 1000.0 nM"}, "[6]": {"target": "RAC-beta serine/threonine-protein kinase (Homo sapiens) (UniProt P31751)", "settings": "Compound concentration 1000.0 nM"}, "[7]": {"target": "Mitogen-activated protein kinase kinase kinase 4 (Homo sapiens) (UniProt Q9Y6R4)", "settings": "Compound concentration 1000.0 nM"}, "[8]": {"target": "Serine/threonine-protein kinase PLK2 (Homo sapiens) (UniProt Q9NYY3)", "settings": "Compound concentration 1000.0 nM"}, "[9]": {"target": "Serine/threonine-protein kinase PAK 4 (Homo sapiens) (UniProt O96013)", "sequence (O96013 whole entry, looked up)": "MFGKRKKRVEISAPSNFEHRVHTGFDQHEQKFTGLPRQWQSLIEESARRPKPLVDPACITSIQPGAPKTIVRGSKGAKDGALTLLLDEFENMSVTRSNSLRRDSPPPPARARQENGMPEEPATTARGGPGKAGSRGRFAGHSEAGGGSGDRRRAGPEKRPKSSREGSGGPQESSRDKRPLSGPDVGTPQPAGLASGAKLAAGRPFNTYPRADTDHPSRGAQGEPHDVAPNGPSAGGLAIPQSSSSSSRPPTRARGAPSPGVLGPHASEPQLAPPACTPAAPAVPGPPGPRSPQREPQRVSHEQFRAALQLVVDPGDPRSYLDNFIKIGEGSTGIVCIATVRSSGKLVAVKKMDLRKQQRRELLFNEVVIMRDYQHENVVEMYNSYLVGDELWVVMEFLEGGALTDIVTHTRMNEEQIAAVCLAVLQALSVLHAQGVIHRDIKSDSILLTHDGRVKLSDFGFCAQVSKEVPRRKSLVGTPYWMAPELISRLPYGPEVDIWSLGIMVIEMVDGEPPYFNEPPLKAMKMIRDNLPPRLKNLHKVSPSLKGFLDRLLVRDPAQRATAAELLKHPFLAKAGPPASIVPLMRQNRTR", "settings": "Compound concentration 1000.0 nM"}, "[10]": {"target": "Mitogen-activated protein kinase 8 (Homo sapiens) (UniProt P45983)", "settings": "Compound concentration 1000.0 nM"}, "[11]": {"target": "Sigma intracellular receptor 2 (Homo sapiens, UniProt Q5BJF2)", "assay": "GPCRScan assay: inhibition of Sigma 2", "design": "radioligand conc. used [nm] 5.0, parental cells HEKT"}, "[12]": {"target": "Phosphatidylinositol 4-kinase beta (Homo sapiens) (UniProt Q9UBF8)", "settings": "Compound concentration 1000.0 nM"}, "[13]": {"target": "Phosphatidylinositol 4,5-bisphosphate 3-kinase catalytic subunit beta isoform (Homo sapiens) (UniProt P42338)", "settings": "Compound concentration 1000.0 nM"}, "[14]": {"target": "MAP kinase-activated protein kinase 5 (Homo sapiens) (UniProt Q8IW41)", "settings": "Compound concentration 1000.0 nM"}, "[15]": {"target": "Delta-type opioid receptor (Homo sapiens, UniProt P41143)", "settings": "Compound concentration 10.0 uM"}, "[16]": {"assay": "GPCRScan assay: inhibition of GABA/PBR", "design": "species or system Rattus norvegicus; radioligand conc. used [nm] 0.3 – 2.0, parental cells brain tissue"}, "[17]": {"target": "NUAK family SNF1-like kinase 2 (Homo sapiens) (UniProt Q9H093)", "settings": "Compound concentration 1000.0 nM"}, "[18]": {"system": "Leucine-rich repeat serine/threonine-protein kinase 2 (Homo sapiens), Q5S007 [G2019S]", "settings": "Compound concentration 1000.0 nM"}, "[19]": {"system": "Receptor-type tyrosine-protein kinase FLT3 (Homo sapiens), P36888 [D835V]", "settings": "Compound concentration 1000.0 nM"}, "[20]": {"system": "Epidermal growth factor receptor (Homo sapiens), P00533 [L858R]", "settings": "Compound concentration 1000.0 nM"}, "[21]": {"system": "Receptor-type tyrosine-protein kinase FLT3 (Homo sapiens), P36888 [R834Q]", "settings": "Compound concentration 1000.0 nM"}, "[22]": {"target": "Cyclin-dependent kinase 11B (Homo sapiens) (UniProt P21127)", "settings": "Compound concentration 1000.0 nM"}, "[23]": {"target": "Protein kinase C epsilon type (Homo sapiens) (UniProt Q02156)", "sequence (Q02156 whole entry)": "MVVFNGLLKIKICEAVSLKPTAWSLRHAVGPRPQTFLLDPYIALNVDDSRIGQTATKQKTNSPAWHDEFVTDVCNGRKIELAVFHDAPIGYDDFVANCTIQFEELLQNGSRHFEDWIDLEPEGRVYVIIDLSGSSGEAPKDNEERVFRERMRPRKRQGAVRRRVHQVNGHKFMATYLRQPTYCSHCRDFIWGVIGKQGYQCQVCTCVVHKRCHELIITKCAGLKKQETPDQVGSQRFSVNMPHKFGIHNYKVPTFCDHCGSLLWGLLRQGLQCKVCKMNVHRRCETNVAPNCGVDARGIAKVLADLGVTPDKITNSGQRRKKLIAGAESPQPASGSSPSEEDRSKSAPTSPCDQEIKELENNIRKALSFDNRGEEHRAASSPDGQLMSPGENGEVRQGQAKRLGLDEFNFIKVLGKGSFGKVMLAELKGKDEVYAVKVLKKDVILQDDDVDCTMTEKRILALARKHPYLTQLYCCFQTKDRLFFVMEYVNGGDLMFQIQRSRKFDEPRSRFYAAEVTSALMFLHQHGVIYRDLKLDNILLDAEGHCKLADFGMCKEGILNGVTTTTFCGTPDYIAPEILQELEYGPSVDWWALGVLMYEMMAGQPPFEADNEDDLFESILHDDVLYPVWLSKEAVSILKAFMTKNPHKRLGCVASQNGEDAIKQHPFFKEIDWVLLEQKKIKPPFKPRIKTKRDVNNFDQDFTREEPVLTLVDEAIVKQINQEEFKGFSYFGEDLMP", "settings": "Compound concentration 1000.0 nM"}, "[24]": {"target": "Serine/threonine-protein kinase LATS2 (Homo sapiens) (UniProt Q9NRM7)", "settings": "Compound concentration 1000.0 nM"}, "[25]": {"target": "Serine/threonine-protein kinase BRSK2 (Homo sapiens) (UniProt Q8IWQ3)", "settings": "Compound concentration 1000.0 nM"}, "[26]": {"target": "Ribosomal protein S6 kinase alpha-1 (Homo sapiens) (UniProt Q15418)", "sequence (Q15418 whole entry)": "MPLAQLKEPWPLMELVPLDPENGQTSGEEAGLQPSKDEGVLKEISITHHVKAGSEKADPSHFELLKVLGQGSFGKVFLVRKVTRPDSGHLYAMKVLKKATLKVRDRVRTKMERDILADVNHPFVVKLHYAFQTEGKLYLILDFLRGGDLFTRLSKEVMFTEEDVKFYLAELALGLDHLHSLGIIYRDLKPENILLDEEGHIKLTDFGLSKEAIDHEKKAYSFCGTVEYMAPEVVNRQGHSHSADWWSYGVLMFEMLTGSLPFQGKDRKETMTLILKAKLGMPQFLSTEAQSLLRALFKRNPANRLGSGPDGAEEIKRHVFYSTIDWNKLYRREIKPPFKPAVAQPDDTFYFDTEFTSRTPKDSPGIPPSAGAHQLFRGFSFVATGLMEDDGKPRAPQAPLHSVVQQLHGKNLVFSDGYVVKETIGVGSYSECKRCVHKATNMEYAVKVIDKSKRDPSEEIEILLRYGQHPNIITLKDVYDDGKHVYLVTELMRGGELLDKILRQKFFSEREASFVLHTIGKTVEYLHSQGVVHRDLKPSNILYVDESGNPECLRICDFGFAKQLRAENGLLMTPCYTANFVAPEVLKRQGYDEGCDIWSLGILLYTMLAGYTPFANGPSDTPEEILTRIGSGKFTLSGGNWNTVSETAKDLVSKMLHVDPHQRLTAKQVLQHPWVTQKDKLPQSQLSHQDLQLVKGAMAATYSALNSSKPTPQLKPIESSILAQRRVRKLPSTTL", "settings": "Compound concentration 1000.0 nM"}, "[27]": {"target": "Mitogen-activated protein kinase 3 (Homo sapiens) (UniProt P27361)", "settings": "Compound concentration 1000.0 nM"}, "[28]": {"target": "Mitogen-activated protein kinase 14 (Homo sapiens) (UniProt Q16539)", "settings": "Compound concentration 1000.0 nM"}, "[29]": {"target": "5-hydroxytryptamine receptor 1D (Homo sapiens) (UniProt P28221)", "sequence (P28221 whole entry)": "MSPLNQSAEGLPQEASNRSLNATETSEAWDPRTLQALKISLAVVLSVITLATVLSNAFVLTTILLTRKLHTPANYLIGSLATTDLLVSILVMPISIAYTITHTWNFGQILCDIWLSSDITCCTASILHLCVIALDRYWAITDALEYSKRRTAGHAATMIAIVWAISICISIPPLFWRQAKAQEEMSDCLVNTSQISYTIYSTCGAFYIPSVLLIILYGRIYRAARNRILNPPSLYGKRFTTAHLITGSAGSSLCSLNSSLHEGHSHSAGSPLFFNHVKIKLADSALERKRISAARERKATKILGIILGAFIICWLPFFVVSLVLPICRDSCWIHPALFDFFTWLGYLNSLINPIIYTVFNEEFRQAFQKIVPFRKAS", "settings": "Compound concentration 10.0 uM"}, "[30]": {"target": "Calcium/calmodulin-dependent protein kinase type II subunit delta (Homo sapiens) (UniProt Q13557)", "settings": "Compound concentration 1000.0 nM"}, "[31]": {"target": "Tyrosine-protein kinase BTK (Homo sapiens) (UniProt Q06187)", "settings": "Compound concentration 1000.0 nM"}, "[32]": {"target": "Dual specificity mitogen-activated protein kinase kinase 6 (Homo sapiens) (UniProt P52564)", "settings": "Compound concentration 1000.0 nM"}, "[33]": {"target": "Cyclin-dependent kinase 9 (Homo sapiens) (UniProt P50750)", "settings": "Compound concentration 1000.0 nM"}, "[34]": {"target": "Mast/stem cell growth factor receptor Kit (Homo sapiens) (UniProt P10721)", "settings": "Compound concentration 1000.0 nM"}, "[35]": {"target": "Proto-oncogene tyrosine-protein kinase receptor Ret (Homo sapiens) (UniProt P07949)", "settings": "Compound concentration 1000.0 nM"}, "[36]": {"target": "Mitogen-activated protein kinase 1 (Homo sapiens) (UniProt P28482)", "sequence (P28482 whole entry)": "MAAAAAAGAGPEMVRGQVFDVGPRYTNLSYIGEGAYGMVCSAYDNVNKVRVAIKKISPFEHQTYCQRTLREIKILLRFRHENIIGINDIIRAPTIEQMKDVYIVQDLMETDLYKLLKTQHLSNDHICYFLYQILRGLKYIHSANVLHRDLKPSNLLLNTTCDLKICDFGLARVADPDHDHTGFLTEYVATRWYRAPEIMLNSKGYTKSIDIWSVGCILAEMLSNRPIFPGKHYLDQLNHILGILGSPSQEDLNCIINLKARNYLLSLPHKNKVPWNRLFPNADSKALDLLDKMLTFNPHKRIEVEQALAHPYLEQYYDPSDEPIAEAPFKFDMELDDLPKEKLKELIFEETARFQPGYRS", "settings": "Compound concentration 1000.0 nM"}, "[37]": {"target": "Cyclin-dependent kinase 11A (Homo sapiens) (UniProt Q9UQ88)", "sequence (Q9UQ88 whole entry)": "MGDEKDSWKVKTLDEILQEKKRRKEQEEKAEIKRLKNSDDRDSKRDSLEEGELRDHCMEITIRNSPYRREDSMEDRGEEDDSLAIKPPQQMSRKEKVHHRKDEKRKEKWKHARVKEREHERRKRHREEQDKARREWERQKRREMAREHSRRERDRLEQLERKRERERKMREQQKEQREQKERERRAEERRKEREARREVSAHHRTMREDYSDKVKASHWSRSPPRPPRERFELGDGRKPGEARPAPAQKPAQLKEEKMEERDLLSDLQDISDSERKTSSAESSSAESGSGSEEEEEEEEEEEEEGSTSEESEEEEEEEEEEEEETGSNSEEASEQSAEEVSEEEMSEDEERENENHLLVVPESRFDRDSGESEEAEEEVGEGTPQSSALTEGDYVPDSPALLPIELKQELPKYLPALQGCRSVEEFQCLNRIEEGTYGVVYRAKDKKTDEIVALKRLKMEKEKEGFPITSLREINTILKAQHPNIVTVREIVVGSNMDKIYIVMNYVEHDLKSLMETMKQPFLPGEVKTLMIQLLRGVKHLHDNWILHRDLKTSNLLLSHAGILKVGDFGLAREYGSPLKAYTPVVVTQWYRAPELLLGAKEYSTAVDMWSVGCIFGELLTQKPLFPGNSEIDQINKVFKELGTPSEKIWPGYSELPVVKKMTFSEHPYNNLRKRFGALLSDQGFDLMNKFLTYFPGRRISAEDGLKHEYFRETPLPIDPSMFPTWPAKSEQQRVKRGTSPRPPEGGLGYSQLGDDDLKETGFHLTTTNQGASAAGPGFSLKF", "settings": "Compound concentration 1000.0 nM"}, "[38]": {"target": "Tyrosine-protein kinase Tec (Homo sapiens) (UniProt P42680)", "settings": "Compound concentration 1000.0 nM"}, "[39]": {"target": "Interleukin-1 receptor-associated kinase 3 (Homo sapiens) (UniProt Q9Y616)", "settings": "Compound concentration 1000.0 nM"}, "[40]": {"target": "Mitogen-activated protein kinase kinase kinase 19 (Homo sapiens) (UniProt Q56UN5)", "settings": "Compound concentration 1000.0 nM"}, "[41]": {"target": "Ribosomal protein S6 kinase alpha-2 (Homo sapiens) (UniProt Q15349)", "settings": "Compound concentration 1000.0 nM"}, "[42]": {"target": "Sodium-dependent serotonin transporter (Homo sapiens) (UniProt P31645)", "settings": "Compound concentration 10.0 uM"}, "[43]": {"target": "Protein-tyrosine kinase 2-beta (Homo sapiens) (UniProt Q14289)", "settings": "Compound concentration 1000.0 nM"}, "[44]": {"target": "Activin receptor type-1 (Homo sapiens) (UniProt Q04771)", "settings": "Compound concentration 1000.0 nM"}, "[45]": {"target": "Dual specificity mitogen-activated protein kinase kinase 4 (Homo sapiens) (UniProt P45985)", "settings": "Compound concentration 1000.0 nM"}, "[46]": {"target": "Serine/threonine-protein kinase DCLK3 (Homo sapiens) (UniProt Q9C098)", "settings": "Compound concentration 1000.0 nM"}}, "data": [{"smiles": "CN(C)CC#Cc1ccc(OCCCc2sc(N3CCc4cccc(C(=O)Nc5nc6ccccc6s5)c4C3)nc2C(=O)O)c(F)c1", "note": "[A-1155463]", "values": [{"measurement": "residual activity", "setting": "[1]", "result": 96, "unit": "%"}, {"measurement": "residual activity", "setting": "[2]", "result": 100, "unit": "%"}, {"measurement": "residual activity", "setting": "[3]", "result": 100, "unit": "%"}, {"measurement": "residual activity", "setting": "[4]", "result": 100, "unit": "%"}, {"measurement": "residual activity", "setting": "[5]", "result": 100, "unit": "%"}, {"measurement": "residual activity", "setting": "[6]", "result": 100, "unit": "%"}, {"measurement": "residual activity", "setting": "[7]", "result": 100, "unit": "%"}, {"measurement": "residual activity", "setting": "[8]", "result": 94, "unit": "%"}, {"measurement": "residual activity", "setting": "[9]", "result": 96, "unit": "%"}, {"measurement": "residual activity", "setting": "[10]", "result": 62, "unit": "%"}, {"measurement": "Ki", "setting": "[11]", "result": 0.806, "unit": "µM"}, {"measurement": "residual activity", "setting": "[12]", "result": 100, "unit": "%"}, {"measurement": "residual activity", "setting": "[13]", "result": 100, "unit": "%"}, {"measurement": "residual activity", "setting": "[14]", "result": 99, "unit": "%"}, {"measurement": "inhibition", "setting": "[15]", "result": 54.6, "unit": "%"}, {"measurement": "Ki", "setting": "[16]", "result": 0.794, "unit": "µM"}, {"measurement": "pKi", "setting": "[16]", "result": 6.1}, {"measurement": "residual activity", "setting": "[17]", "result": 82, "unit": "%"}, {"measurement": "residual activity", "setting": "[18]", "result": 100, "unit": "%"}, {"measurement": "residual activity", "setting": "[19]", "result": 100, "unit": "%"}, {"measurement": "residual activity", "setting": "[20]", "result": 89, "unit": "%"}, {"measurement": "residual activity", "setting": "[21]", "result": 100, "unit": "%"}, {"measurement": "residual activity", "setting": "[22]", "result": 93, "unit": "%"}, {"measurement": "residual activity", "setting": "[23]", "result": 100, "unit": "%"}, {"measurement": "residual activity", "setting": "[24]", "result": 95, "unit": "%"}, {"measurement": "residual activity", "setting": "[25]", "result": 93, "unit": "%"}, {"measurement": "residual activity", "setting": "[26]", "result": 81, "unit": "%"}, {"measurement": "residual activity", "setting": "[27]", "result": 96, "unit": "%"}, {"measurement": "residual activity", "setting": "[28]", "result": 100, "unit": "%"}, {"measurement": "inhibition", "setting": "[29]", "result": 34.5, "unit": "%"}, {"measurement": "residual activity", "setting": "[30]", "result": 72, "unit": "%"}, {"measurement": "residual activity", "setting": "[31]", "result": 96, "unit": "%"}, {"measurement": "residual activity", "setting": "[32]", "result": 100, "unit": "%"}, {"measurement": "residual activity", "setting": "[33]", "result": 94, "unit": "%"}, {"measurement": "residual activity", "setting": "[34]", "result": 97, "unit": "%"}, {"measurement": "residual activity", "setting": "[35]", "result": 100, "unit": "%"}, {"measurement": "residual activity", "setting": "[36]", "result": 100, "unit": "%"}, {"measurement": "residual activity", "setting": "[37]", "result": 100, "unit": "%"}, {"measurement": "residual activity", "setting": "[38]", "result": 97, "unit": "%"}, {"measurement": "residual activity", "setting": "[39]", "result": 77, "unit": "%"}, {"measurement": "residual activity", "setting": "[40]", "result": 95, "unit": "%"}, {"measurement": "residual activity", "setting": "[41]", "result": 100, "unit": "%"}, {"measurement": "inhibition", "setting": "[42]", "result": 16.4, "unit": "%"}, {"measurement": "residual activity", "setting": "[43]", "result": 100, "unit": "%"}, {"measurement": "residual activity", "setting": "[44]", "result": 100, "unit": "%"}, {"measurement": "residual activity", "setting": "[45]", "result": 100, "unit": "%"}, {"measurement": "residual activity", "setting": "[46]", "result": 100, "unit": "%"}]}]}
